Read-outs that look alike come from different tables or passages of the source.
Key:
[1] = Hepatocyte metabolism (stability in cryopreserved hepatocytes); details: human hepatocytes
Description: (§4) A 2.5 uL aliquot of 100 μM test compound was incubated with 247.5 uL of cryopreserved hepatocytes suspended in serum-free incubation medium at 1 million viable cells/mL. The mixture was incubated at 37° C. and shaken at 500 rpm for the designated time points (0.5, 5, 10, 15, 30, 60, 90, or 120 min). At each time point, 25 uL aliquot of incubation mixture was transferred to 125 uL of cold acetonitrile containing internal standard, followed by centrifugation for 30 min at 3,220 g. 100 uL of supernatant was mixed with 100 uL of distilled water for analysis by LC-MS/MS. Peak area ratios were determined from extracted ion chromatograms and percent recovery was calculated.

in vitro = details: human hepatocytes
Description: as §4

mouse behavior = experiment: SmartCube system behavioral signature in mice; type: in vivo
Source text: To confirm that compound 018 and Compound 019 has antidepressant effects, the SmartCube® system (Psychogenics, Inc., Paramus, NJ) was used. This system uses features derived from mouse behavioral data to classify compounds for their ability to treat neuro-psychiatric symptoms by comparing the features to a proprietary reference database of behavioral feature sets that are linked to classes of marketed drugs known to treat neuro-psychiatric symptoms. Thus the system can be used as a model to identify the psychiatric effect of a compound by comparing the effects of the compounds against drugs with known validated effects. By comparing the responses of animals to known drugs, the test drug can be categorized according to its function; for example, hallucinogen, anxiogenic, analgesic, cognitive enhancer, psychostimulant, mood stabilizer, high dose anti-psychotic, anti-psychotic, sedative/hypnotic, anxiolytic, high dose antidepressant, antidepressant.
Once all features are extracted from the raw data through an automated pipeline, proprietary bioinformatics algorithms are used to decorrelate groups of features and find the combination of values that best separate different groups of interest. For each compound, at each dose, they system provides a probability that the drug is active and breaks down such putative activity into the different classes of interest.
Mice were tested in the SmartCube® system where they were exposed to a sequence of challenges during the 45-minute test period. The cubes were cleaned between each run.
For class and subclass analysis, a reference data set has been built from hundreds of drug doses in multiple drug classes plus a control group. Each reference drug was tested at multiple doses appropriate for that drug in mice. The best performing classifiers were chosen from our evaluation tests and two separate types of classifiers were built that make independent predictions at drug class and subclass levels. The Class consists of drugs that are currently in the market or have been clinically validated for that specific indication. The sub-class consists of both marketed drugs and other compounds that have been mechanistically validated and is a larger set than the Class.
Data was processed using proprietary computer vision and data mining algorithms and the results were compared to signatures of the reference compounds in our database. Multiple analyses of the data was performed to quantitatively produce independent predictions of drug class, and drug subclass. The behavioral signatures of the test drug were evaluated using these classifiers to predict potential therapeutic utility.

in vivo = details: beagle, dog
Source text: (§5) HPLC Instrument: Shimsadzu (DGU-20A5R, Serial No: L20705621435 IX; LC-30AD Serial No: L20555611905 AE and L20555611816 AE; SIL-L30AC, Serial No: L20565605499 AE; Rack Changer II Serial No. L20585601125 SS; CTO20A: Serial No. L20205620413 CD; CBM-20A: Serial No. L20235636200 CD) • MS: AB API 5500 LC/MS/MS instrument (Serial No. EF221221812) • Column: Phenomenex Synergi 2.5 μm Polar-RP 100A. (50×3 mm) • Mobile Phase: (A) 5% Acetonitrile in Water (0.1% Formic acid); (B) 95% Acetonitrile in Water (0.1% Formic acid) • Samples: 50 μL of plasma sample+5 μL of blank solution+200 μL of acetonitrile for PPE (protein precipitation extraction).
(§6) The desired serial concentrations of working solutions were achieved by diluting stock solution of analyte with 50% acetonitrile in water solution. 5 μL of working solutions (5, 10, 20, 50, 100, 500, 1000, 5000, 10000 ng/mL) were added to 50 μL of the blank Beagle Dog plasma to achieve calibration standards of 0.5˜1000 ng/mL (0.5, 1, 2, 5, 10, 50, 100, 500, 1000 ng/mL) in a total volume of 55 μL. Five quality control samples at 1 ng/mL, 2 ng/mL, 5 ng/mL, 50 ng/mL and 800 ng/mL for plasma were prepared independently of those used for the calibration curves. These QC samples were prepared on the day of analysis in the same way as calibration standards.
(§7) 55 μL standards, 55 μL QC samples and 55 μL unknown samples 50 μL plasma with 5 μL blank solution) were added to 200 μL of acetonitrile containing IS mixture for precipitating protein respectively. Then the samples were vortexed for 30 s. After centrifugation at 4 degree Celsius, 3900 rpm for 15 min, the supernatant was diluted 3 times with water.

[2] = human, 1 µM
Description: as §4

PDE4B2 = PDE4B2 (Homo sapiens (Human), UniProt Q07343); experiment: PDE4 inhibition assay (fluorescence polarization), PDE4B2; type: biochemical
PDE4B2, sequence (Q07343 other isoform, or with tags, fused parts or gaps): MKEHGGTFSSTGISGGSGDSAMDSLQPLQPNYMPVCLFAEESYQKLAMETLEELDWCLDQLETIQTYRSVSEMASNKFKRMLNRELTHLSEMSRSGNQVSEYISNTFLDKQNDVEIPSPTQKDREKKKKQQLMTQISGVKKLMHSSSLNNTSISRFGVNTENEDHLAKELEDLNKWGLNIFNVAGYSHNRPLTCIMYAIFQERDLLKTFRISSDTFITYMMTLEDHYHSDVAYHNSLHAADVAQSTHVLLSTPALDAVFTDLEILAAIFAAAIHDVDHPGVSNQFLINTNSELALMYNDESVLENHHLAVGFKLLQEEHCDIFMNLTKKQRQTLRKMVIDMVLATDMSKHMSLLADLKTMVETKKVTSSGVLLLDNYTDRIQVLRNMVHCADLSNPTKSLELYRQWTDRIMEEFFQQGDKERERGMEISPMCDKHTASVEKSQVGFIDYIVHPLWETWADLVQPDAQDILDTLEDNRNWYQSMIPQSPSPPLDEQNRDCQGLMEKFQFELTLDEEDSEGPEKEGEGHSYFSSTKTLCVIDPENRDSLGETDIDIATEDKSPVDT
Description: (§1) 100 μM dilutions of the test compounds were prepared in assay buffer (10% DMSO concentration) and 5 μl of the dilution was added to a 50 μl reaction so that the final concentration of DMSO is 1% in all of reactions. The enzymatic reactions were conducted at room temperature for 60 minutes in a 50 μl mixture containing PDE assay buffer, 100 nM FAM-cAMP, a PDE enzyme (Table 2.3.1) and the test compound (Section 2.2). After the enzymatic reaction, 100 μl of a binding solution (1:100 dilution of the binding agent with the binding agent diluent) was added to each reaction and the reaction was performed at room temperature for 60 minutes. Fluorescence intensity was measured at an excitation of 485 nm and an emission of 528 nm using a Tecan Infinite M1000 microplate reader.
(§2) • 1) Dilute 20 μM FAM-Cyclic-3′, 5′-AMP stock 100-fold with PDE buffer to make a 200 nM solution. • 2) Add 25 μl of FAM-Cyclic-3′,5′-AMP (200 nM) to each well designated “Positive Control”, “Test Inhibitor”, and “Substrate Control”. • 3) Add 20 μl of PDE assay buffer to each well designated “Substrate Control” and 45 μl of PDE assay buffer to each well designated “Blank”. • 4) Add 5 μl of inhibitor solution to each well designated “Test Inhibitor”. For the wells labeled “Positive Control”, “Substrate Control” and “Blank”, add 5 μl of the same solution without inhibitor (inhibitor buffer). • 5) Thaw PDE on ice. Upon first thaw, briefly spin tube containing enzyme to recover the full contents of the tube. • 6) Dilute PDE4 in PDE buffer to 7.5 pg/μl (0.15 ng/reaction)*. Initiate reaction by adding 20 µl of PDE4 (7.5 pg/μl) to the wells designated “Positive Control” and “Test Inhibitor.” • 7) Incubate at room temperature for 1 hour.
(§3) • 1) Mix binding agent thoroughly and dilute binding agent 1:100 with binding agent diluent. • 2) Add 100 μl diluted binding agent to each microwell. Incubate at room temperature for 1 hour with slow shaking. • 3) Read the fluorescent polarization of the sample in a microtiter-plate reader equipped for the measurement of fluorescence polarization, capable of excitation at wavelengths ranging from 485±5 nm and detection of emitted light ranging from 528±10 nm. Blank value is subtracted from all other values. • 4) Data Analysis: PDE activity assays were performed in duplicate at each concentration. Fluorescence intensity is converted to fluorescence polarization using the Tecan Magellan6 software. The fluorescence polarization data were analyzed using the computer software, Graphpad Prism. The fluorescence polarization (FPt) in absence of the compound in each data set was defined as 100% activity. In the absence of PDE and the compound, the value of fluorescent polarization (FPb) in each data set was defined as 0% activity. The percent activity in the presence of the compound was calculated according to the following equation: % activity=(FP−FPb)/(FPt−FPb)×100%, where FP=the fluorescence polarization in the presence of the compound. The values of % activity versus a series of compound concentrations were then plotted using non-linear regression analysis of sigmoidal dose-response curve generated with the equation Y=B+(T−B)/1+10^(LogEC50−X)×Hill Slope), where Y=percent activity, B=minimum percent activity, T=maximum percent activity, X=logarithm of compound and Hill Slope=slope factor or Hill coefficient. The IC50 value was determined by the concentration causing a half-maximal percent activity.

PDE4D2 = PDE4D2 (Homo sapiens (Human), UniProt Q08499); experiment: PDE4 inhibition assay (fluorescence polarization), PDE4D2; type: biochemical; details: 10 μM
PDE4D2, sequence (Q08499 303-809): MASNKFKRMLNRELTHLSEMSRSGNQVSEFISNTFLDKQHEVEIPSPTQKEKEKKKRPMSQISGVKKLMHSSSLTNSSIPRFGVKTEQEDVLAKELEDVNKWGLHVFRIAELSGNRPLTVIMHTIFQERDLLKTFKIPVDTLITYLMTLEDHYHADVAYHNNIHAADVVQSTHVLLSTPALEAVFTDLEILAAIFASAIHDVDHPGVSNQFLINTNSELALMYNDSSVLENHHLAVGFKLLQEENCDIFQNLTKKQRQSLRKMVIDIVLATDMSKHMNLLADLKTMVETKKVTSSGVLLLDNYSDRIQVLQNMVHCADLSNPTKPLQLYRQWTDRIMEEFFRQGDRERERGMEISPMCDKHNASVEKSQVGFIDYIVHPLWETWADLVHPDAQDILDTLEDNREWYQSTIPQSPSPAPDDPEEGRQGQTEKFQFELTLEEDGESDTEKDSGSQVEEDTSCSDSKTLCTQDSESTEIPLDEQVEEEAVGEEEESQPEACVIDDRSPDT
Description: as §1, §2, §3

SERT = SERT (Homo sapiens (Human), UniProt P31645); experiment: SERT inhibition assay (Neurotransmitter Transporter fluorescence uptake, stable 5HTT HEK293 cells); type: cell-based; details: n=6 ± SD
Description: SERT inhibition was measured using a Neruotransmitter Transportation Fluorescence assay. Briefly, stable 5HTT HEK293 cells were prepared in a 384 microwell plate (20,000 cells per 20 μL well). Compounds were prepared by in assay buffer (20 mM HEPES in HBSS, 0.1% BSA) at a top concentration of 1 μM. 10 doses of test compound (3-fold serial dilution) were added to the plated cells and incubated for 30 minutes at 37° C. 25 μL of dye solution (Molecular Devices Neurotransmitter Transporter Uptake Assay Kit) was added per well and incubated for 30 minutes at 37° C.

PDE4C1 = PDE4C1 (Homo sapiens (Human), UniProt Q08493); experiment: PDE4 inhibition assay (fluorescence polarization), PDE4C1; type: biochemical; details: 10 μM
PDE4C1, sequence (Q08493 whole entry): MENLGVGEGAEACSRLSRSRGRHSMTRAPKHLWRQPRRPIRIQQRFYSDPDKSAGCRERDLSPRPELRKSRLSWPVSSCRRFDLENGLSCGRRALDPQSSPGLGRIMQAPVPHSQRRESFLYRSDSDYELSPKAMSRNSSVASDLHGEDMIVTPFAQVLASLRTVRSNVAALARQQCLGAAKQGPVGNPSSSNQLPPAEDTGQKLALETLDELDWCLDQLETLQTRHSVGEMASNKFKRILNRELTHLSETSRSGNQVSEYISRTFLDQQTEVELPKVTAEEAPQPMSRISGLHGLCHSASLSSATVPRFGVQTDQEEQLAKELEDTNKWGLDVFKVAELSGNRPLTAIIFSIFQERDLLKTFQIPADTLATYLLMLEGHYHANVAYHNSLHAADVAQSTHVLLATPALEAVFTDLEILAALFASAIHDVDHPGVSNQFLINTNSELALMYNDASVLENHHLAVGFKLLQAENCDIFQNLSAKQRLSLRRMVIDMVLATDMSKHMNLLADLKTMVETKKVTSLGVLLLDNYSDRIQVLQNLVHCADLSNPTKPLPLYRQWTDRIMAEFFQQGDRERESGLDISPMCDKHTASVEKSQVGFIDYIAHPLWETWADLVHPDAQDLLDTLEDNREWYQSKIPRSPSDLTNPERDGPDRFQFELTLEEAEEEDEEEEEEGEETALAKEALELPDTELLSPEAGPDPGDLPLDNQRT
Description: as §1, §2, §3

PDE4A1A = PDE4A1A (Homo sapiens (Human), UniProt P27815); experiment: PDE4 inhibition assay (fluorescence polarization), PDE4A1A; type: biochemical; details: 10 μM
PDE4A1A, sequence (P27815 other isoform, or with tags, fused parts or gaps): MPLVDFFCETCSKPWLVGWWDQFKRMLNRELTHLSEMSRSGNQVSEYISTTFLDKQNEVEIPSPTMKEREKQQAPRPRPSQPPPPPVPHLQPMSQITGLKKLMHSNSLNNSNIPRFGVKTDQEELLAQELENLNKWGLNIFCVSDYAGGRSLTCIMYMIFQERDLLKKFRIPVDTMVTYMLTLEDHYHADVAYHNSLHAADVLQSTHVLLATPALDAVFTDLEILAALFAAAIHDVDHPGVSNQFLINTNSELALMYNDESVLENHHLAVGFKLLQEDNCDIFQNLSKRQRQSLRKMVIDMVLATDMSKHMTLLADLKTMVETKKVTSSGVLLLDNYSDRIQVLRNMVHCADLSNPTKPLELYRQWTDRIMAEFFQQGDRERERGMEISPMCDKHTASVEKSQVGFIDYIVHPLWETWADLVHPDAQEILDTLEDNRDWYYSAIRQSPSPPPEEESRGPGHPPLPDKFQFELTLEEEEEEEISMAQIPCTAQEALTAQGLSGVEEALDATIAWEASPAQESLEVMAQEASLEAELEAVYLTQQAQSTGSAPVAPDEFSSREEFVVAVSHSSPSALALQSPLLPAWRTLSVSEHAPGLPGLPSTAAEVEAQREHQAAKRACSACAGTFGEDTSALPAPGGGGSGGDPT
Description: as §1, §2, §3

[3] = dog, in vivo
Source text: as §5, §6, §7

With COc1ccc([C@@]23CC[C@H](O)C[C@@H]2N(C)CC3)cc1OC [Compound 019, (3aS,6S,7aS)-3a-(3,4-dimethoxyphenyl)-1-methyloctahydro-1H-indol-6-ol] the “Extraction Ratio” value [1] was <0.10, the t1/2 [1] was >2 h and the CLint scaled at 1 µM (in vitro) was < 2 mL/min/kg. The half-life at 1 µM (in vitro) was > 2 h, the hepatocyte CLint at 1 µM (in vitro) was < 1 µL/min/1e6 cells and the “behavioral activity (in words)” value (mouse behavior; mice, 3 mg/kg) was “low behaviorally activity”. For the same molecule, the “antidepressant signature, subclass analysis” value (mouse behavior; mice, 100 mg/kg) was “a mix of SSRI and SNRI”, the “signature in class and subclass” value (mouse behavior; mice, 10, 30 and 100 mg/kg) was “mixed antidepressant and psychostimulant-like signatures” and the AUC(0-inf) (in vivo; iv, 2 mg/kg) was 3140 ng·h/mL. For the same molecule, the AUC(0-t) (in vivo; iv, 2 mg/kg) was 3120 ng·h/mL, the C0 (in vivo; iv, 2 mg/kg) was 1530 ng/mL and the MRT inf (in vivo; iv, 2 mg/kg) was 3.86 h. The half-life (in vivo; iv, 2 mg/kg) was 3.38 h, the AUC(0-inf) (in vivo; po, 10 mg/kg) was 14800 ng·h/mL and the AUC(0-t) (in vivo; po, 10 mg/kg) was 14700 ng·h/mL. The Cmax (in vivo; po, 10 mg/kg) was 2550 ng/mL, the MRT inf (in vivo; po, 10 mg/kg) was 4.85 h and the Tmax (in vivo; po, 10 mg/kg) was 0.83 h. The half-life (in vivo; po, 10 mg/kg) was 3.33 h, the “% QH” value [2] was <10% and the CLHB [2] was <2 mL/min/kg. The “PDE4B2 % INH @ 10 μM” value (PDE4B2) was 0%, the “PDE4B2 % INH @ 10 μM” value (PDE4B2; listed as Compound 19) was “no more than 5%” and the “PDE4D2 %INH @ 10 μM” value (PDE4D2) was 3%. The inhibition at 10 µM (PDE4D2; read-out: PDE4D2 %INH @ 10 μM) was ≤ 5%, the IC50 (SERT) was 10.6 ± 10.1 nM and the “PDE4C1 % INH @ 10 μM” value (PDE4C1) was 3%. The inhibition at 10 µM (PDE4C1; read-out: PDE4C1 % INH @ 10 μM) was ≤ 5%, the “PDE4A1A % INH @ 10 μM” value (PDE4A1A) was 4% and the inhibition at 10 µM (PDE4A1A; read-out: PDE4A1A % INH @ 10 μM) was ≤ 5%. For the same molecule, the “AUC_% Extrap_obs” value ([3]; beagle, iv, 2 mg/kg) was 0.52%, the AUClast/D ([3]; beagle, iv, 2 mg/kg) was 1560 and the Cl_obs ([3]; beagle, iv, 2 mg/kg) was 10.82 mL/min/kg. For the same molecule, the “AUC_% Extrap_obs” value ([3]; beagle, po, 10 mg/kg) was 0.64%, the AUClast/D ([3]; beagle, po, 10 mg/kg) was 1473.2 and the F ([3]; beagle, po, 10 mg/kg) was 94.6%. For the same molecule, the “half-life compared to Compound 018” value ([3]; iv) was “about three times greater”.
